Source: patent US20150297637A1, “ACTIVATED CARBON COMPRISING AN ADSORBED IODIDE SALT IN A METHOD FOR TREATING CHRONIC BRONCHITIS” (PHARMALUNDENSIS AB, priority 2012, published 2015)
Entries after “also recorded” stand apart in the source; their conditions may differ.

Test system: cough and sputum production in a patient with chronic bronchitis
Assay: Use of KI-impregnated charcoal for treating a patient with chronic bronchitis
Assay type: in vivo, human
Conditions: one patient; capsule with 10 mg KI per day for one month
From the text: A person has for several years experienced increasing problems with cough and mucous production for long periods. They were diagnosed as suffering from chronic bronchitis. They were prescribed standard treatment including corticosteroids, anti-cholinergics, beta2-stimulants and mucolytics such as acetylcysteine.
Since the chronic bronchitis caused considerable inconvenience, they examined alternative ways to reduce the symptoms.
To clarify if the improvement of the chronic bronchitis by KI-impregnated activated charcoal was caused by iodide, […] then took a capsule with 10 mg (which amount is considerably higher than the amount of iodide in the KI-impregnated activated charcoal, 300 mg×1.62%=4.9 mg) KI per day for one month.
Finally, they once again took 300 mg activated charcoal impregnated with 1.6% KI in a 00 vegetable capsule for one month.

[I-].[K+] [KI, Potassium iodide]
Cough and sputum production: did not reduce the cough or sputum production at all; also recorded: no improvement of cough or sputum production
